Tests used:
Assay type in all cases: in vivo
[1] = test system: foxtail, giant (giant foxtail, Setaria faberii); assay: Test A pre-/postemergence: foxtail, giant; conditions: for Foxtail, Giant plant response rating: Postemergence; for Plant response rating, Foxtail, Giant: Preemergence
Outline: (§1)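 Each species received preemergence soil-directed spraying and, at the same time, postemergence treatment of seedlings 2–10 cm tall. Formulation: non-phytotoxic solvent mixture including surfactant. Response assessed visually about ten days on, relative to untreated controls, 0–100 scale.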

[2] = test system: ducksalad (Heteranthera limosa); assay: Test C flooded paddy test: ducksalad; conditions: scale 0 to 100 (0 no effect, 100 complete control)
Outline: (§2)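 Rating: visual, 0–100 (100 = complete control), versus untreated controls after 13 to 15 greenhouse days. Treatment went into paddy water held at 3 cm over the soil, on plants grown to two leaves.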

[3] = test system: wheat (Triticum aestivum); assay: Test A pre-/postemergence: wheat; conditions: for Wheat plant response rating: Postemergence; for Plant response rating, Wheat: Preemergence
Outline: as §1

[4] = test system: corn (Zea mays); assay: Test A pre-/postemergence: corn; conditions: for Corn plant response rating: Postemergence; for Plant response rating, Corn: Preemergence
Outline: as §1

[5] = test system: pigweed (Amaranthus retroflexus); assay: Test A pre-/postemergence: pigweed; conditions: for Pigweed plant response rating: Postemergence; for Plant response rating, Pigweed: Preemergence
Outline: as §1

[6] = test system: rice (Oryza sativa); assay: Test C flooded paddy test: rice; conditions: scale 0 to 100 (0 no effect, 100 complete control)
Outline: as §2

[7] = test system: barnyardgrass (Echinochloa crus-galli); assay: Test C flooded paddy test: barnyardgrass; conditions: scale 0 to 100 (0 no effect, 100 complete control)
Outline: as §2

[8] = test system: barnyardgrass (Echinochloa crus-galli); assay: Test A pre-/postemergence: barnyardgrass; conditions: for Barnyardgrass plant response rating: Postemergence; for Plant response rating, Barnyardgrass: Preemergence
Outline: as §1

[9] = test system: morningglory (Ipomoea spp.); assay: Test A pre-/postemergence: morningglory; conditions: for Morningglory plant response rating: Postemergence; for Plant response rating, Morningglory: Preemergence
Outline: as §1

[10] = test system: velvetleaf (Abutilon theophrasti); assay: Test A pre-/postemergence: velvetleaf; conditions: for Velvetleaf plant response rating: Postemergence; for Plant response rating, Velvetleaf: Preemergence
Outline: as §1

[11] = test system: sedge, umbrella (small-flower umbrella sedge, Cyperus difformis); assay: Test C flooded paddy test: sedge, umbrella; conditions: scale 0 to 100 (0 no effect, 100 complete control)
Outline: as §2

[12] = test system: crabgrass, large (large crabgrass, Digitaria sanguinalis); assay: Test A pre-/postemergence: crabgrass, large; conditions: for Crabgrass, Large plant response rating: Postemergence; for Plant response rating, Crabgrass, Large: Preemergence
Outline: as §1

[13] = 125 g ai/ha, 0 to 100 scale, 0 is no effect, 100 is complete control
[14] = 500 g ai/ha, visual rating on 0 to 100 scale (0 no effect, 100 complete control), approximately ten days
[15] = 125 g ai/ha, 0 to 100 scale where 0 is no effect and 100 is complete control
[16] = 500 g ai/ha, 0 to 100 scale, 0 is no effect, 100 is complete control
[17] = Flood (flooded paddy test), 125 g ai/ha, visual rating after 13 to 15 days
[18] = Flood (flooded paddy test), 250 g ai/ha, visual rating after 13 to 15 days
[19] = 125 g ai/ha, 0 to 100 scale (0 no effect, 100 complete control)

## Cc1nn(-c2ccccc2I)nc1C(=O)c1cccc(C(F)(F)F)c1 [Compound 91]
[1]; [13]
  Foxtail, Giant plant response rating: 0
[1]; [14]
  Foxtail, Giant plant response rating: 10
[1]; [15]
  Plant response rating, Foxtail, Giant: 0
[1]; [16]
  Plant response rating, Foxtail, Giant: 0
[2]; [17]
  Plant response rating, Ducksalad: 0
[2]; [18]
  Plant response rating, Ducksalad: 0
[2]; Flood, 31 g ai/ha
  Plant response rating, Ducksalad: 0
[2]; Flood, 62 g ai/ha
  Plant response rating, Ducksalad: 0
[3]; [13]
  Wheat plant response rating: 0
[3]; [14]
  Wheat plant response rating: 0
[3]; [15]
  Plant response rating, Wheat: 0
[3]; [16]
  Plant response rating, Wheat: 0
[4]; [13]
  Corn plant response rating: 10
[4]; [14]
  Corn plant response rating: 10
[4]; [19]
  Plant response rating, Corn: 0
[4]; [16]
  Plant response rating, Corn: 0
[5]; [13]
  Pigweed plant response rating: 10
[5]; [14]
  Pigweed plant response rating: 30
[5]; [15]
  Plant response rating, Pigweed: 0
[5]; [16]
  Plant response rating, Pigweed: 0
[6]; [17]
  Plant response rating, Rice: 0
[6]; [18]
  Plant response rating, Rice: 0
[6]; Flood, 31 g ai/ha
  Plant response rating, Rice: 0
[6]; Flood, 62 g ai/ha
  Plant response rating, Rice: 0
[7]; [17]
  Plant response rating, Barnyardgrass: 0
[7]; [18]
  Plant response rating, Barnyardgrass: 0
[7]; Flood, 31 g ai/ha
  Plant response rating, Barnyardgrass: 0
[7]; Flood, 62 g ai/ha
  Plant response rating, Barnyardgrass: 0
[8]; [13]
  Barnyardgrass plant response rating: 0
[8]; [14]
  Barnyardgrass plant response rating: 10
[8]; [19]
  Plant response rating, Barnyardgrass: 0
[8]; [16]
  Plant response rating, Barnyardgrass: 0
[9]; [13]
  Morningglory plant response rating: 0
[9]; [14]
  Morningglory plant response rating: 0
[9]; [15]
  Plant response rating, Morningglory: 0
[9]; [16]
  Plant response rating, Morningglory: 0
[10]; [13]
  Velvetleaf plant response rating: 0
[10]; [14]
  Velvetleaf plant response rating: 10
[10]; [15]
  Plant response rating, Velvetleaf: 0
[10]; [16]
  Plant response rating, Velvetleaf: 0
[11]; [17]
  Plant response rating, Sedge, Umbrella: 0
[11]; [18]
  Plant response rating, Sedge, Umbrella: 0
[11]; Flood, 31 g ai/ha
  Plant response rating, Sedge, Umbrella: 0
[11]; Flood, 62 g ai/ha
  Plant response rating, Sedge, Umbrella: 0
[12]; [13]
  Crabgrass, Large plant response rating: 0
[12]; [14]
  Crabgrass, Large plant response rating: 10
[12]; [19]
  Plant response rating, Crabgrass, Large: 0
[12]; [16]
  Plant response rating, Crabgrass, Large: 0
